Drawing on patent US20250205200A1, “5-METHOXY-N,N-[…][…] THE TREATMENT OF […]” (GH RESEARCH IRELAND LIMITED, priority 2022, published 2025), this text covers Induction of mutation for 1 compound.

The test system of the series is Salmonella typhimurium (TA98, TA100, TA1535 and TA1537). The series can be described thus: Bacterial mutation test, Salmonella typhimurium. The series is classed as cell-based. To be noted: up to 5000 μg/plate; absence and presence of S-9. On the procedure: These conditions included treatments at concentrations up to 5000 μg/plate (the maximum recommended concentration according to current regulatory guidelines), in the absence and in the presence of a rat liver metabolic activation system (S-9).

In the case of `COc1ccc2[nH]cc(CCN(C)C)c2c1` [5-MeO-DMT], the Induction of mutation entry was “did not induce mutation”.
